The target in one assay is T1, ALK (Homo sapiens, UniProt Q9UM73).
T1 construct: host or cells: baculovirus expression system
The experiment in a line: ALK Kinase Assay (ELISA/TRF, PLC-γ substrate). It counts as biochemical. Particulars: ALK Kinase Inhibition; read-out: ALK Potency. An outline of the steps:
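IC50 values derive from percent inhibition plotted against log10 compound concentration and fitted to a variable-slope sigmoidal equation. The underlying reaction used 30 ng/ml ALK acting on immobilized PLC-γ (10 μg/mL in TBS) at 37° C for 15 minutes, read with Eu-N1 PT66 antibody.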
In general terms: In an ELISA, binding on a coated surface is turned into a signal by an enzyme label.

The next assay deals with T2, JAK2 (Homo sapiens, UniProt O60674).
T2 construct: host or cells: baculovirus expression system
The experiment in a line: Recombinant Human JAK2 Kinase Assay (TRF). It counts as biochemical. Particulars: JAK2 Kinase Inhibition; read-out: JAK2 Potency. An outline of the steps:
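TRF read-out: Eu-N1 PY100 anti-phosphotyrosine antibody detects product. Enzyme is baculovirus-expressed JAK2 at 15 ng/ml; substrate is a biotinyl 15-mer peptide bound to Neutravidin-coated wells. Buffer 20 mM HEPES pH 7.2, 0.2 μM ATP, 1 mM MnCl2, 0.1% BSA, 2.5% DMSO final; 20 min, RT.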

IC50 data for 24 compounds are collected here from patent US8471005B2 (Cephalon, Inc., priority 2008, dated 2013).

T2 sequence (O60674 whole entry): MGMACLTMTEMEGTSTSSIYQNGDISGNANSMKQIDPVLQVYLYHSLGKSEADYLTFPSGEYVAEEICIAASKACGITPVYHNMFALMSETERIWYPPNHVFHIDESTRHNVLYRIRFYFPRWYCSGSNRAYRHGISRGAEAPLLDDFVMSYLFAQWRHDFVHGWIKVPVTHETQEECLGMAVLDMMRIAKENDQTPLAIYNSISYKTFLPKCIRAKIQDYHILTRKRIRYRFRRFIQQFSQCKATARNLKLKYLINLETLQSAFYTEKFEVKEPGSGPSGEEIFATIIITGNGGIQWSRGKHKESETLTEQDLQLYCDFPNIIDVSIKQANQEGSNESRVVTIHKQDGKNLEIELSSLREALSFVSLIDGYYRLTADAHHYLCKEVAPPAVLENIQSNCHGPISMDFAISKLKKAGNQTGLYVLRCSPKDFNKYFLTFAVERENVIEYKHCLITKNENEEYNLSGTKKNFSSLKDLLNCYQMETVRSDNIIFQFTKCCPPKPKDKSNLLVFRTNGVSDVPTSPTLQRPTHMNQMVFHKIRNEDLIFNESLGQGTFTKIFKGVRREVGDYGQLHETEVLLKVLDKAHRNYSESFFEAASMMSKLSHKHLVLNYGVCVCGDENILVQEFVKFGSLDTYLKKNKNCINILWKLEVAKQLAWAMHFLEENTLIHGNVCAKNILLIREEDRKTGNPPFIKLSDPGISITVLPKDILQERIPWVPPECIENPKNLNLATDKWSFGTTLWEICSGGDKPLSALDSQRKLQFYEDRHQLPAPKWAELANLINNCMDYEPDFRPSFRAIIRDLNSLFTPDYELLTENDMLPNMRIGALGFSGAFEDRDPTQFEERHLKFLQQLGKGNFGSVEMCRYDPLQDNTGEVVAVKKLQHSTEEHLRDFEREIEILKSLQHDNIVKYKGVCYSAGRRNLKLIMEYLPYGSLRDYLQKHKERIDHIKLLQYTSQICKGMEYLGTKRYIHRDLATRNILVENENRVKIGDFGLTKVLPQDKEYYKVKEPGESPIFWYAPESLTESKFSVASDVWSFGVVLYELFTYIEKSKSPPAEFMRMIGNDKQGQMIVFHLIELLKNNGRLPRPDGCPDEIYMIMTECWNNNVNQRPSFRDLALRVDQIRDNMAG
T1 sequence (Q9UM73 19-1620): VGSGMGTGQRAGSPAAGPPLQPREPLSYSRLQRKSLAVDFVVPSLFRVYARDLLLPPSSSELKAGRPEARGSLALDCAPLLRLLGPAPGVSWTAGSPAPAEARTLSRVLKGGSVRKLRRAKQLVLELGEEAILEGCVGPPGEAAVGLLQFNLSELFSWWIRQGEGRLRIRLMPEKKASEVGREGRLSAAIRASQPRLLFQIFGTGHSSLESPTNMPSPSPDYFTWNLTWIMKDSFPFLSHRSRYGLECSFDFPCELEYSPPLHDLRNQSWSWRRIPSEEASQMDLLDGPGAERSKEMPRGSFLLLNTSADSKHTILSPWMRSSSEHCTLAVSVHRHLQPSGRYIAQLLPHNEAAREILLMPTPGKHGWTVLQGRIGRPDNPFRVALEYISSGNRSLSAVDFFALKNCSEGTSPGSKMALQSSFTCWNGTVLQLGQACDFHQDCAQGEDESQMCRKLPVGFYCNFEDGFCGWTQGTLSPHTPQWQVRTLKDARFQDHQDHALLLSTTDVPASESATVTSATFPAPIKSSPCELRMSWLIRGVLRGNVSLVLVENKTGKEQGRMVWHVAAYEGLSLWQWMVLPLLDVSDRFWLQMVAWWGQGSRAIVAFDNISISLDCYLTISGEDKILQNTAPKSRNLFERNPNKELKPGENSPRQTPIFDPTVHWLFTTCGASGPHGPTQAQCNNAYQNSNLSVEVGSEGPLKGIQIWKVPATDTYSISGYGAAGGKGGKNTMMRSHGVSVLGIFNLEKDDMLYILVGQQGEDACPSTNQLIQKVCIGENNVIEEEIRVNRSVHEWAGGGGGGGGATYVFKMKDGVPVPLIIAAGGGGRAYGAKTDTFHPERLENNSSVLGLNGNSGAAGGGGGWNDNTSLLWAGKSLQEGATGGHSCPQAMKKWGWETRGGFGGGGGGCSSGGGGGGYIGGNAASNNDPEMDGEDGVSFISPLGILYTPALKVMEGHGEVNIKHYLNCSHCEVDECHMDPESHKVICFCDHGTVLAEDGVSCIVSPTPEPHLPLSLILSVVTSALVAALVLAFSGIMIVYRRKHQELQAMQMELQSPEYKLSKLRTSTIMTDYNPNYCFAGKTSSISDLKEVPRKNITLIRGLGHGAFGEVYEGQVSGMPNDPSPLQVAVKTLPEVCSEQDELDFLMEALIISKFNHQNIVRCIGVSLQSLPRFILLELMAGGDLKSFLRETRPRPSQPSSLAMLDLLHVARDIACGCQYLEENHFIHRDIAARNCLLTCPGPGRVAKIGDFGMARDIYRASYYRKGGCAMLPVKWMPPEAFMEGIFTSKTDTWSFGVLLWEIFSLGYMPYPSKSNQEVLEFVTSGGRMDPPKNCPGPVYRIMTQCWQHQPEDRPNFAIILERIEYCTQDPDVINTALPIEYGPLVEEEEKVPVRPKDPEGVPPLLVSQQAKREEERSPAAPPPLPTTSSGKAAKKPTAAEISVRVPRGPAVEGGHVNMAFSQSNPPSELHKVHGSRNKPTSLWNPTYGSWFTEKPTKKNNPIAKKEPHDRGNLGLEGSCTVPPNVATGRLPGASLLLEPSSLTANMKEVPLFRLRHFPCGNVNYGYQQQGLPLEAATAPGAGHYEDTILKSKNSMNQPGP

With `COc1cc(N2CCN(C)CC2)ccc1Nc1ncc2ccc(-c3ccccc3N(C)S(C)(=O)=O)n2n1` [Example 1457, N-(2-{2-[2-Methoxy-4-(4-methyl-piperazin-1-yl)-phenylamino]-pyrrolo[2,1-f][1,2,4]triazin-7-yl}-phenyl)-N-methyl-methanesulfonamide], the IC50 is under 0.1 µM at ALK and 0.1 to 1 µM on JAK2.

`CCN(c1ccccc1-c1ccc2cnc(Nc3ccc(N4CCC(N5CCOCC5)CC4)cc3OC)nn12)S(C)(=O)=O` [Example 1460, N-Ethyl-N-(2-{2-[2-methoxy-4-(4-morpholin-4-yl-piperidin-1-yl)-phenylamino]-pyrrolo[2,1-f][1,2,4]triazin-7-yl}-phenyl)-methanesulfonamide]: the IC50 at ALK and at JAK2 was under 0.1 µM each time.

`COc1cc(N2CCC(N3CCOCC3)CC2)ccc1Nc1ncc2ccc(-c3ccccc3N(CC3CC3)S(C)(=O)=O)n2n1` [Example 1461, N-Cyclopropylmethyl-N-(2-{2-[2-methoxy-4-(4-morpholin-4-yl-piperidin-1-yl)-phenylamino]-pyrrolo[2,1-f][1,2,4]triazin-7-yl}-phenyl)-methanesulfonamide]: the IC50 on ALK and on JAK2 was under 0.1 µM throughout.

Take `COCCN(c1ccccc1-c1ccc2cnc(Nc3ccc(N4CCC(N5CCOCC5)CC4)cc3OC)nn12)S(C)(=O)=O` [Example 1462, N-(2-Methoxy-ethyl)-N-(2-{2-[2-methoxy-4-(4-morpholin-4-yl-piperidin-1-yl)-phenylamino]-pyrrolo[2,1-f][1,2,4]triazin-7-yl}-phenyl)-methanesulfonamide]: the IC50 on ALK and on JAK2 was 0.1 to 1 µM each time.

Take `COc1cc(N2CCC(N3CCOCC3)CC2)ccc1Nc1ncc2ccc(-c3ccccc3N(CCF)S(C)(=O)=O)n2n1` [Example 1463, N-(2-Fluoro-ethyl)-N-(2-{2-[2-methoxy-4-(4-morpholin-4-yl-piperidin-1-yl)-phenylamino]-pyrrolo[2,1-f][1,2,4]triazin-7-yl}-phenyl)-methanesulfonamide]: the IC50 at ALK and at JAK2 was under 0.1 µM in each case.

Take `COc1cc(N2CCC(N3CCOCC3)CC2)ccc1Nc1ncc2ccc(-c3ccccc3C(F)(F)F)n2n1` [Example 1464, [2-Methoxy-4-(4-morpholin-4-yl-piperidin-1-yl)-phenyl]-[7-(2-trifluoromethyl-phenyl)-pyrrolo[2,1-f][1,2,4]triazin-2-yl]-amine]: the results for the IC50 on ALK and at JAK2 were under 0.1 µM and 0.1 to 1 µM, respectively.

As for `COc1cc(N2CCC(N3CCOCC3)CC2)ccc1Nc1ncc2ccc(-c3cccc(OC)c3OC)n2n1` [Example 1465, [7-(2,3-Dimethoxy-phenyl)-pyrrolo[2,1-f][1,2,4]triazin-2-yl]-[2-methoxy-4-(4-morpholin-4-yl-piperidin-1-yl)-phenyl]-amine], the IC50 on ALK and at JAK2 was under 0.1 µM in each case.

Consider `COc1cc(N2CCC(N3CCOCC3)CC2)ccc1Nc1ncc2ccc(-c3ccccc3Cl)n2n1` [Example 1466, [7-(2-Chloro-phenyl)-pyrrolo[2,1-f][1,2,4]triazin-2-yl]-[2-methoxy-4-(4-morpholin-4-yl-piperidin-1-yl)-phenyl]-amine], for which the IC50 on ALK and on JAK2 was under 0.1 µM in each case.

Regarding `COc1cc(N2CCC(C)(N3CCOCC3)CC2)ccc1Nc1ncc2ccc(-c3ccccc3OC)n2n1` [Example 1467], the IC50 at ALK and at JAK2 was under 0.1 µM throughout.

On to `COc1cc(N2CCC(C)(N3CCOCC3)CC2)ccc1Nc1ncc2ccc(-c3ccccc3N(C)S(C)(=O)=O)n2n1` [Example 1468, N-(2-{2-[2-Methoxy-4-(4-methyl-4-morpholin-4-yl-piperidin-1-yl)-phenylamino]-pyrrolo[2,1-f][1,2,4]triazin-7-yl}-phenyl)-N-methyl-methanesulfonamide], for which the results for the IC50 on ALK and at JAK2 were under 0.1 µM and 0.1 to 1 µM, respectively.

As for `COc1cc(N2CCC(F)(F)CC2)ccc1Nc1ncc2ccc(-c3ccccc3N(C)S(C)(=O)=O)n2n1` [Example 1469, N-(2-{2-[4-(4,4-Difluoro-piperidin-1-yl)-2-methoxy-phenylamino]-pyrrolo[2,1-f][1,2,4]triazin-7-yl}-phenyl)-N-methyl-methanesulfonamide], the IC50 on ALK is under 0.1 µM; at JAK2, 0.1 to 1 µM.

Consider `COc1cc(N2CCC(F)(F)CC2)ccc1Nc1ncc2ccc(-c3ccccc3OC)n2n1` [Example 1470, [4-(4,4-Difluoro-piperidin-1-yl)-2-methoxy-phenyl]-[7-(2-methoxy-phenyl)-pyrrolo[2,1-f][1,2,4]triazin-2-yl]-amine], for which the IC50 was 0.1 to 1 µM on ALK and under 0.1 µM at JAK2.

Turning to `COc1cc(N2CCN(C3CCOCC3)CC2)ccc1Nc1ncc2ccc(-c3ccccc3N(C)S(C)(=O)=O)n2n1` [Example 1471, N-[2-(2-{2-Methoxy-4-[4-(tetrahydro-pyran-4-yl)-piperazin-1-yl]-phenylamino}-pyrrolo[2,1-f][1,2,4]triazin-7-yl)-phenyl]-N-methyl-methanesulfonamide], the IC50 was under 0.1 µM on ALK and 0.1 to 1 µM on JAK2.

As for `COc1cc(N2CCN(C3CCOCC3)CC2)ccc1Nc1ncc2ccc(-c3ccccc3OC)n2n1` [Example 1472, [7-(2-Methoxy-phenyl)-pyrrolo[2,1-f][1,2,4]triazin-2-yl]-{2-methoxy-4-[4-(tetrahydro-pyran-4-yl)-piperazin-1-yl]-phenyl}-amine], the IC50 at ALK and at JAK2 was under 0.1 µM each time.

For `COc1cc(N2CCC(N3CCOCC3)CC2)ccc1Nc1ncc2ccc(-c3ccccc3F)n2n1` [Example 1473, [7-(2-Fluoro-phenyl)-pyrrolo[2,1-f][1,2,4]triazin-2-yl]-[2-methoxy-4-(4-morpholin-4-yl-piperidin-1-yl)-phenyl]-amine], the IC50 on ALK and at JAK2 was under 0.1 µM in each case.

As to `COc1cc(N2CCC(N3CCC(F)(F)CC3)CC2)ccc1Nc1ncc2ccc(-c3ccccc3N(C)S(C)(=O)=O)n2n1` [Example 1474, N-(2-{2-[4-(4,4-Difluoro-[1,4′]bipiperidinyl-1′-yl)-2-methoxy-phenylamino]-pyrrolo[2,1-f][1,2,4]triazin-7-yl}-phenyl)-N-methyl-methanesulfonamide], the figures for the IC50 on ALK and on JAK2 were under 0.1 µM and 0.1 to 1 µM, respectively.

On to `COc1cc(N2CCC(N3CCC(F)(F)CC3)CC2)ccc1Nc1ncc2ccc(-c3ccccc3OC)n2n1` [Example 1475, [4-(4,4-Difluoro-[1,4′]bipiperidinyl-1′-yl)-2-methoxy-phenyl]-[7-(2-methoxy-phenyl)-pyrrolo[2,1-f][1,2,4]triazin-2-yl]-amine], for which the IC50 is under 0.1 µM at ALK and 0.1 to 1 µM on JAK2.

`COc1ccc(OC)c(-c2ccc3cnc(Nc4ccc(N5CCC(N6CCOCC6)CC5)cc4OC)nn23)c1` [Example 1476, [7-(2,5-Dimethoxy-phenyl)-pyrrolo[2,1-f][1,2,4]triazin-2-yl]-[2-methoxy-4-(4-morpholin-4-yl-piperidin-1-yl)-phenyl]-amine]: the IC50 on ALK is under 0.1 µM; on JAK2, 0.1 to 1 µM.

Take `COc1ccc(OC)c(-c2ccc3cnc(Nc4ccc(N5CCN(C[C@H](C)O)CC5)cc4OC)nn23)c1` [Example 1477, (S)-1-(4-{4-[7-(2,5-Dimethoxy-phenyl)-pyrrolo[2,1-f][1,2,4]triazin-2-ylamino]-3-methoxy-phenyl}-piperazin-1-yl)-propan-2-ol]: the values for the IC50 on ALK and at JAK2 were under 0.1 µM and 1 to 10 µM, respectively.

Turning to `COc1c(Nc2ncc3ccc(-c4ccccc4N(C)S(C)(=O)=O)n3n2)ccc(N2CCN(C[C@H](C)O)CC2)c1F` [Example 1478, N-[2-(2-{3-Fluoro-4-[4-((S)-2-hydroxy-propyl)-piperazin-1-yl]-2-methoxy-phenylamino}-pyrrolo[2,1-f][1,2,4]triazin-7-yl)-phenyl]-N-methyl-methanesulfonamide], the IC50 on ALK is under 0.1 µM; on JAK2 it was 1 to 10 µM.

For the compound `COc1cc(N2CCN(C[C@H](C)O)CC2)c(F)cc1Nc1ncc2ccc(-c3ccccc3N(C)S(C)(=O)=O)n2n1` [Example 1479, N-[2-(2-{5-Fluoro-4-[4-((S)-2-hydroxy-propyl)-piperazin-1-yl]-2-methoxy-phenylamino}-pyrrolo[2,1-f][1,2,4]triazin-7-yl)-phenyl]-N-methyl-methanesulfonamide], the figures for the IC50 at ALK and on JAK2 were under 0.1 µM and 0.1 to 1 µM, respectively.

Consider `COc1cc(N2CCN(C[C@H](C)O)CC2)c(F)cc1Nc1ncc2ccc(-c3ccccc3OC)n2n1` [Example 1480, (S)-1-(4-{2-Fluoro-5-methoxy-4-[7-(2-methoxy-phenyl)-pyrrolo[2,1-f][1,2,4]triazin-2-ylamino]-phenyl}-piperazin-1-yl)-propan-2-ol], for which the results for the IC50 at ALK and on JAK2 were under 0.1 µM and 0.1 to 1 µM, respectively.

As for `COc1ccccc1-c1ccc2cnc(Nc3cc(F)c(N4CCN(C[C@H](C)O)CC4)cc3F)nn12` [Example 1481, (S)-1-(4-{2,5-Difluoro-4-[7-(2-methoxy-phenyl)-pyrrolo[2,1-f][1,2,4]triazin-2-ylamino]-phenyl}-piperazin-1-yl)-propan-2-ol], the IC50 at ALK and on JAK2 was under 0.1 µM each time.

As for `C[C@H](O)CN1CCN(c2cc(F)c(Nc3ncc4ccc(-c5ccccc5N(C)S(C)(=O)=O)n4n3)cc2F)CC1` [Example 1482, N-[2-(2-{2,5-Difluoro-4-[4-((S)-2-hydroxy-propyl)-piperazin-1-yl]-phenylamino}-pyrrolo[2,1-f][1,2,4]triazin-7-yl)-phenyl]-N-methyl-methanesulfonamide], the IC50 at ALK was 0.1 to 1 µM; at JAK2, under 0.1 µM.
